Paper PMC6423129, “Activity and structural analysis of GRL-117C: a novel small molecule CCR5 inhibitor active against R5-tropic HIV-1s” (Scientific Reports, 2019)

Key:
CC1/85 cl.7 = assay: Anti-HIV-1 assay, drug-naive clinical strain CC1/85 cl.7; type: cell-based; settings: Human immunodeficiency virus 1
Protocol: (§1) MAGI-CCR5 cells[18] were maintained in DMEM supplemented with 10% fetal calf serum (FCS: Gemini Bio-Products, West Sacramento, CA), 200 μg/ml G418, 100 μg/ml hygromycin B, and 100 μg/ml zeomycin. The Chinese hamster ovary (CHO) cells expressing CCR5[19] were maintained in Ham’s F-12 medium (GIBCO-BRL, Rockville, MD) supplemented with 10% FCS, 50 U/ml penicillin, and 50 μg/ml streptomycin in the presence of 5 μg/ml blasticidin S hydrochloride. TZM-bl cells were obtained from the NIH AIDS Reagent Program, and were cultured in DMEM with 10% FCS. Peripheral blood mononuclear cells (PBMCs) were isolated from buffy coats of HIV-1 seronegative individuals, and were activated with 10 μg/ml phytohemagglutinin (PHA) prior to use[16]. A laboratory wild-type R5-HIV-1 strain (HIV-1Ba-L)[37] was employed for drug susceptibility assays. AD101 (experimental CCR5 inhibitor) and VVC-resistant HIV clones[7],[8] were provided by Dr. John P. Moore of Cornell University for this study. The clones were propagated with activated PBMCs, and were used for the assays. A clinical HIV-1 strain, HIV-1KP-5pc, and an MVC-resistant isolate, HIV-1KP-5mvcR, were prepared and used for antiviral assays, as previously described[10],[38]. The following reagents (plasmids) for T/F HIV-1 viruses[22],[24] were obtained through the NIH AIDS Reagent Program, Division of AIDS, NIAID, NIH: pCH040.c/2625 (cat# 11740), pCH106.c/2633 (cat# 11743), pTHRO.c/2626 (cat# 11745), and pCH058.c/2960 (cat# 11856), from Dr. John Kappes and Dr. Christina Ochsenbauer.
(§2) Antiviral assays using PHA-PBMCs (p24 assay) were conducted as previously reported[16],[38]. In brief, PHA-PBMCs (1 × 10^6/ml) were exposed to 50 TCID50 of HIV-1Ba-L or drug-resistant HIV-1 infectious clones in the presence or absence of various concentrations of drugs; 10-fold serial dilutions were performed in 96-well microculture plates. The amount of p24 antigens produced by the cells was determined on day 7 in the culture via a commercially available ELISA kit (PerkinElmer). The p24 production level in drug-free control cell cultures was used as the reference. […] Antiviral assays using MAGI-CCR5 cells (MAGI assay) were conducted as previously reported[16],[39]. Single-round virus infection assays using TZM-bl cells infected with R5-HIV-1s (HIV-1YU2, HIV-1KP-5pc, and HIV-1KP-5mvcR)[10] were also conducted as previously described.

pCH040.c/2625 = assay: MAGI assay, T/F HIV-1 clone pCH040.c/2625; type: cell-based; settings: Human immunodeficiency virus 1, MAGI
Source text: (§3) We also examined the activity of GRL-compounds against Transmitter/founder (T/F) HIV-1 viruses. T/F viruses are involved in the initial infection. It is considered that T/F viruses virtually always use CCR5 rather than CXCR4 and infect T cells but not macrophages because […] of CD4 is needed to mediate virus entry for the initial transmission[20]–[24]. […] We obtained four HIV-1 T/F infectious clones. We determined the antiviral activity of GRL-117C, GRL-10007C and GRL-10018C on these HIV-1 clones using MAGI assay.
as §1, with “A clinical HIV-1 strain, HIV-1KP-5pc, and an MVC-resistant isolate, HIV-1KP-5mvcR, were prepared and used for antiviral assays, as previously described[10],[38].” left out
as §2

[1] = tested on: Transmitter/founder (T/F) HIV-1 viruses; assay: MAGI assay, all four T/F viruses (range); type: cell-based; settings: Human immunodeficiency virus 1, MAGI, read-out: IC50 values (range over four T/F viruses)
Source text: as §3
MAGI-CCR5 cells[18] were maintained in DMEM supplemented with 10% fetal calf serum (FCS: Gemini Bio-Products, West Sacramento, CA), 200 μg/ml G418, 100 μg/ml hygromycin B, and 100 μg/ml zeomycin. The Chinese hamster ovary (CHO) cells expressing CCR5[19] were maintained in Ham’s F-12 medium (GIBCO-BRL, Rockville, MD) supplemented with 10% FCS, 50 U/ml penicillin, and 50 μg/ml streptomycin in the presence of 5 μg/ml blasticidin S hydrochloride. TZM-bl cells were obtained from the NIH AIDS Reagent Program, and were cultured in DMEM with 10% FCS. […]
Antiviral assays using PHA-PBMCs (p24 assay) were conducted as previously reported[16],[38]. […] The amount of p24 antigens produced by the cells was determined on day 7 in the culture via a commercially available ELISA kit (PerkinElmer). […]

CCR5 = biological target: T1, CCR5 (Homo sapiens, UniProt P51681); assay: Inhibition of 125I-MIP-1β binding to CCR5 (CCR5+ CHO cells)
T1 construct: expressed in transfected cells; host or cells: Chinese hamster ovary (CHO) cells expressing CCR5
T1 sequence (P51681 whole entry): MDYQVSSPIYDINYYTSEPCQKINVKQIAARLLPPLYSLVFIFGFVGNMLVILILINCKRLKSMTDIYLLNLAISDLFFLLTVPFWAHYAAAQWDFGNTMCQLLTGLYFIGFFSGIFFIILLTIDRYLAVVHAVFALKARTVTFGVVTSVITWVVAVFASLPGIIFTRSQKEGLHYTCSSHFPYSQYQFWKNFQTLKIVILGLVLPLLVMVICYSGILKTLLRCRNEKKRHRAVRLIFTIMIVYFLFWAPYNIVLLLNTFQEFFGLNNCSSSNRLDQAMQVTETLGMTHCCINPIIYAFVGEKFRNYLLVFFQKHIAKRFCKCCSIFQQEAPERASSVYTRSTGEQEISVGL
Protocol: In order to determine whether GRL derivatives block the binding of CC-chemokines to CCR5, we conducted a CC-chemokine binding inhibition assay using ^125I-labeled CC-chemokines (^125I-RANTES, ^125I-MIP-1α, and ^125I-MIP-1β) and CCR5 expressing cells.
CCR5^+ CHO cells were incubated with (A) ^125I-MIP-1α, (B) ^125I-MIP-1β, and (C) ^125I-RANTES (200 ng/ml) in the presence or absence of varying concentrations of CCR5 inhibitors. Data are shown as means ± s.d. of three independent experiments.
The inhibition of the binding of ^125I-labeled CC-chemokines ([^125I] RANTES, [^125I] MIP-1α, or [^125I] MIP-1β) to CCR5 by various CCR5 inhibitors was measured as previously described. Calcium flux inhibition assays were also performed with CCR5 inhibitors, and were carried out with the Fluo-4 Direct^TM calcium reagent (Invitrogen); assays were conducted as previously described with minor modifications. In brief, CHO-CCR5 cells (5 × 10^5 cells) were exposed to Fluo-4 Direct^TM calcium reagent for 60 min at 37 °C in RPMI containing 5% FCS. Cells were then incubated with the test compound for 30 min at varying concentrations. Subsequently, cells were exposed to either MIP-1α, MIP-1β, or RANTES at 200 ng/ml. Relative increases in cytosolic Ca^2+ levels after chemokine exposure were determined with flow cytometry (FACSCalibur, BD Biosciences), and IC50 values of cytosolic Ca^2+ mobilization (Ca^2+ flux) were compared with the Ca^2+ flux level in drug-free control samples.

Work on `C=CCN(C(=O)OCc1ccc([N+](=O)[O-])cc1)C1CC2CCC(C1)N2CCC(C)(CN(C)S(=O)(=O)c1ccccc1)c1ccccc1` (centres unmarked) [GRL-117C] yielded an IC50 (CC1/85 cl.7) of 3.5 nM, an IC90 (CC1/85 cl.7) of 28.9 nM and an IC50 (pCH040.c/2625) of 2 ± 0.6 nM. The IC50 [1] was 1.9 to 3.2 nM and the EC50 (CCR5) was 2 nM.
